In BindingDB's records for patent US10774052 (Celgene CAR LLC; Sanofi, 2020) one finds IC50 data, which are given here for one compound.

For this test, the target named is Fibroblast growth factor receptor 4 (Homo sapiens, UniProt P22455). The test can be described thus: Omnia Assay Protocol for Potency Assessment Against (method a).
Fibroblast growth factor receptor 4, sequence (P22455 whole entry): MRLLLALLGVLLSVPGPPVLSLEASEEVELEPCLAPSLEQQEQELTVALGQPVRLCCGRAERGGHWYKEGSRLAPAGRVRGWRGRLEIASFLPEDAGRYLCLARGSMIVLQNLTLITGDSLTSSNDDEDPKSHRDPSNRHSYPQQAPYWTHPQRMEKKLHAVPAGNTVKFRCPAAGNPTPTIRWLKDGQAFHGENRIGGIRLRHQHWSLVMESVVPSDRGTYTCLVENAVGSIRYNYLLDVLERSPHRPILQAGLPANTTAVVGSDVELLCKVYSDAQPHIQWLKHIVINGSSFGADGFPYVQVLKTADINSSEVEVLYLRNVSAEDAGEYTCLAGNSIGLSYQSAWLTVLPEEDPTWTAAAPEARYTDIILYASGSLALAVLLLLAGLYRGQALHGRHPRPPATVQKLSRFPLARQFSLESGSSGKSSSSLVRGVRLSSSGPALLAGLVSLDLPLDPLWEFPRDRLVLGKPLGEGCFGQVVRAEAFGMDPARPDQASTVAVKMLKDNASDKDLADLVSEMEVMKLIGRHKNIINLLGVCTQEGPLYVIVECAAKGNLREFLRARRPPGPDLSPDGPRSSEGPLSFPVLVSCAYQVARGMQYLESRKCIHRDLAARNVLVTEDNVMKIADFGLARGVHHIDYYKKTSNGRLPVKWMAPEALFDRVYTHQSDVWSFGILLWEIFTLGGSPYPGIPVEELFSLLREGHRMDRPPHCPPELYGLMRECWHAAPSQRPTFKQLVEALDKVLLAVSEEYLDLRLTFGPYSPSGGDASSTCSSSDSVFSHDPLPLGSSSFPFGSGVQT

Experimental: A solution of 1.4×ATP (AS001A) and 5× Tyr-Sox conjugated peptide substrate (KNZ3101) were prepared in 1× kinase reaction buffer consisting of 20 mM Tris, pH 7.5, 5 mM MgCl2, 1 mM EGTA, 5 mM β-glycerophosphate, 5% glycerol (10× stock, KB002A) and 0.2 mM DTT (DS001A). […] The serially diluted compounds were prepared on a Tecan EV0100. A second addition of 10 μl of Tyr-Sox FGFR4 substrate was added to each well and the kinase reactions were started with the addition of 35 μL of 1.4×ATP. The reactions were monitored every 71 seconds for 240 minutes at λex360/λem485 in a Synergy plate reader from BioTek (Winooski, Vt.).

By IC50 is commonly meant the midpoint of a concentration-inhibition curve. A lower IC50 goes with inhibition by little substance. In turn, `C=CC(=O)Nc1cc(C2=CCN(CC)CC2)ccc1Nc1ncc2c(n1)N(CC)C(=O)N(c1cc(OC)cc(OC)c1)C2` [US10774052, Compound I-56] came in with an IC50 below 100 nM.
